Measurements taken from patent US9643967B2, “Pyrrolo[3,2-c]pyridine derivatives as TLR inhibitors” (TAKEDA PHARMACEUTICAL COMPANY LIMITED, priority 2013, dated 2017).
Read-outs that look alike come from different tables or passages of the source.

Target: T1, mTLR7 (Mus musculus, UniProt P58681)
T1 construct: Splenocytes isolated from male C57/BL6 mice; from tissue; host or cells: splenocytes from the spleen of male C57BL/6 mice
T1 sequence (P58681 27-1050): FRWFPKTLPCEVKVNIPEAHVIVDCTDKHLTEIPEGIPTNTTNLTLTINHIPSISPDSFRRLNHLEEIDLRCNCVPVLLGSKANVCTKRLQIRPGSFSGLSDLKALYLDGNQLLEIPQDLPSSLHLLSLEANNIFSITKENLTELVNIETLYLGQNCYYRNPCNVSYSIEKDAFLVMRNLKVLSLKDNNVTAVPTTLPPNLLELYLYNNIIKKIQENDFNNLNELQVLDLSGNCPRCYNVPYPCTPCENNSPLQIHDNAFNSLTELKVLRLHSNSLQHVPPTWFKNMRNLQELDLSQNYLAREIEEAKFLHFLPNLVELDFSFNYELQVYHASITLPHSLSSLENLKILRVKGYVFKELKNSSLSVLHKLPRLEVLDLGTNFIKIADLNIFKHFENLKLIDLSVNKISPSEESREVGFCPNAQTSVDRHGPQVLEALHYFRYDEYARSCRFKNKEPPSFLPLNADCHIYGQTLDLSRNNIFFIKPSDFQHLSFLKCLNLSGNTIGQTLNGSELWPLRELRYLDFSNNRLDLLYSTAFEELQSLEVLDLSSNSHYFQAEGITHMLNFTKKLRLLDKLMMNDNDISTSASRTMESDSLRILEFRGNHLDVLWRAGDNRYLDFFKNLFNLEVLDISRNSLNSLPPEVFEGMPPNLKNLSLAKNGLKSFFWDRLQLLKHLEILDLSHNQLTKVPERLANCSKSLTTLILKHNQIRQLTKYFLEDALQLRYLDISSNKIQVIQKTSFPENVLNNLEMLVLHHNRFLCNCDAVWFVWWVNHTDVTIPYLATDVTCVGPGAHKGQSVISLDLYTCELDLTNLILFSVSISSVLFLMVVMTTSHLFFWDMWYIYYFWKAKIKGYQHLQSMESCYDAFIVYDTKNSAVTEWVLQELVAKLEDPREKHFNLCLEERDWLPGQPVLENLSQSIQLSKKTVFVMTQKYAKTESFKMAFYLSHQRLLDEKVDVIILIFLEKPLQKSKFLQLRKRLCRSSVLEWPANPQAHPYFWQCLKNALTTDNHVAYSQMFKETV
Experiment: mTLR7 antagonism (IL-6 and TNF-α release assay) in mouse splenocytes, R0006/DOTAP stimulated
Type: cell-based
How it was run: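 C57BL6 splenocytes (0.2 million/well) preincubated 30 min with compounds (30 μM to 1 nM, 0.3% DMSO), then stimulated with R0006/DOTAP liposome complex at 1 μg/ml final, overnight, 37 °C, 5% CO2. IL-6 and TNF-α in supernatant by ELISA; IC50 from inhibition curves.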

[1] = 1 μM, TNF-α release, mouse splenocytes, read-out: mTLR7 inhibitory activity (% at 1 μM), TNF-α
[2] = 1 μM, IL-6 release, mouse splenocytes, read-out: mTLR7 inhibitory activity (% at 1 μM), IL-6

| Compound | inhibition at 1 µM [1] [%] | inhibition at 1 µM [2] [%] | inhibition at 1 µM (read-out: mTLR7 inhibitory activity (% at 1 μM), IL-6) [%] | inhibition at 1 µM (read-out: mTLR7 inhibitory activity (% at 1 μM), TNF-α) [%] |
| --- | --- | --- | --- | --- |
| CN1CCN(c2ccc(-c3nc(C4CC4)cc4[nH]c(CN5CCOCC5)cc34)cc2)CC1 [Example A34, 4-[[6-cyclopropyl-4-[4-(4-methylpiperazin-1-yl)phenyl]-1H-pyrrolo[3,2-c]pyridin-2-yl]methyl] morpholine] | 100 |  |  |  |
| CC(C)N1CC=C(c2ccc(-c3nccc4[nH]c(CN5CCOCC5)cc34)cn2)CC1 [Example A52, 4-[[4-[6-(1-isopropyl-3,6-dihydro-2H-pyridin-4-yl)-3-pyridyl]-1H-pyrrolo[3,2-c]pyridin-2-yl]methyl]morpholine] | 10 | 71 |  |  |
| CC(C)N1CCN(c2ccc(-c3nccc4[nH]c(CN5CCOCC5)cc34)cc2)CC1 [Example A1, 4-[[4-[4-(4-isopropylpiperazin-1-yl)phenyl]-1H-pyrrolo[3,2-c]pyridin-2-yl]methyl]morpholine] | 100 | 97 |  |  |
| CN1CCN(c2ccc(-c3nccc4[nH]c(CN5CCC(F)CC5)cc34)cc2)CC1 [Example A25, 2-[(4-fluoro-1-piperidyl)methyl]-4-[4-(4-methylpiperazin-1-yl)phenyl] - 1H-pyrrolo[3,2-c]pyridine] | 100 | 100 |  |  |
| CC(C)N1CCN(c2cccc(-c3nccc4[nH]c(CN5CCOCC5)cc34)c2)CC1 [Example A57, 4-[[4-[3-(4-isopropylpiperazin-1-yl)phenyl]-1H-pyrrolo[3,2-c]pyridin-2-yl]methyl]morpholine] | 79 | 80 |  |  |
| Cc1nc(-c2ccc(N3CCN(C)CC3)cc2)c2cc(CN3CCOCC3)[nH]c2c1C [Example A37, 4-[[6,7-dimethyl-4-[4-(4-methylpiperazin-1-yl)phenyl]-1H-pyrrolo[3,2-c]pyridin-2-yl]methyl] morpholine] | 100 |  |  |  |
| CN1CCC(Oc2ccc(-c3nccc4[nH]c(CN5CCOCC5)cc34)cc2)CC1 [Example A62, 4-[[4-[4-[(1-methyl-4-piperidyl)oxy]phenyl]-1H-pyrrolo[3,2-c]pyridin-2-yl]methyl]morpholine] | 75 |  |  |  |
| Cc1cc2[nH]c(CN3CCC4(CC3)CC(C)C4)cc2c(-c2ccc(N3CCN(C(C)C)CC3)cc2)n1 [Example A30, 4-[4-(4-isopropylpiperazin-1-yl)phenyl]-6-methyl-2-[(2-methyl-7-azaspiro[3.5]nonan-7-yl)methyl]-1H-pyrrolo[3,2-c]pyridine] | 100 | 100 |  |  |
| CC(C)N1CCN(c2ccc(-c3nccc4[nH]c(C(=O)N5CCOCC5)cc34)cc2)CC1 [Example A82, [4-[4-(4-isopropylpiperazin-1-yl)phenyl]-1H-pyrrolo[3,2-c]pyridin-2-yl]-morpholino-methanone] |  |  | 86 | 24 |
| CC(C)N1CCN(c2ccc(-c3nccc4[nH]c(CN5CC(O)C5)cc34)cc2)CC1 [Example A72, 1-[[4-[4-(4-isopropylpiperazin-1-yl)phenyl]-1H-pyrrolo[3,2-c]pyridin-2-yl]methyl]azetidin-3-ol] | 14 | 0 |  |  |
| CC(C)N1CCN(c2ccc(-c3nccc4[nH]c(CN5CCCCC5)cc34)cc2)CC1 [Example A17, 4-[4-(4-isopropylpiperazin-1-yl)phenyl]-2-(1-piperidylmethyl)-1H-pyrrolo[3,2-c]pyridine] | 100 | 100 |  |  |
| c1cc2[nH]c(CN3CCOCC3)cc2c(-c2ccc(OC3CCNCC3)cc2)n1 [Example A49, 4-[[4-[4-(4-piperidyloxy)phenyl]-1H-pyrrolo[3,2-c]pyridin-2-yl]methyl]morpholine] | 3 | 2 |  |  |
| CC(C)N1CCC(n2cc(-c3nccc4[nH]c(CN5CCOCC5)cc34)cn2)CC1 [Example A54, 4-[[4-[1-(1-isopropyl-4-piperidyl)pyrazol-4-yl]-1H-pyrrolo[3,2-c]pyridin-2-yl]methyl]morpholine] | 0 |  |  |  |
| CC(C)N1CCC(Oc2ccc(-c3nccc4[nH]c(CN5CCOCC5)cc34)cc2)CC1 [Example A56, 4-[[4-[4-[(1-isopropyl-4-piperidyl)oxy]phenyl]-1H-pyrrolo[3,2-c]pyridin-2-yl]methyl]morpholine] | 64 |  |  |  |
| CCN1CCN(c2ccc(-c3nc(C)c(C)c4[nH]c(CN5CCOCC5)cc34)cc2)CC1 [Example A38, 4-[[4-[4-(4-ethylpiperazin-1-yl)phenyl]-6,7-dimethyl-1H-pyrrolo[3,2-c]pyridin-2-yl]methyl] morpholine] | 100 | 100 |  |  |

Now from value to compound, other results behind:

| inhibition at 1 µM [1] [%] | inhibition at 1 µM [2] [%] | Compound | inhibition at 1 µM (read-out: mTLR7 inhibitory activity (% at 1 μM), IL-6) [%] | inhibition at 1 µM (read-out: mTLR7 inhibitory activity (% at 1 μM), TNF-α) [%] |
| --- | --- | --- | --- | --- |
| 100 | 100 | Cc1nc(-c2ccc(N3CCN(C(C)C)CC3)cc2)c2cc(CCN3CCCC3)[nH]c2c1C [Example B10, 4-[4-(4-isopropylpiperazin-1-yl)phenyl]-6,7-dimethyl-2-(2-pyrrolidin-1-ylethyl)-1H-pyrrolo[3,2-c]pyridine] |  |  |
| 100 |  | Cc1cc2[nH]c(CCN3CCCCC3)cc2c(-c2ccc(N3CCN(C(C)C)CC3)cc2)n1 [Example B5, 4-[4-(4-isopropylpiperazin-1-yl)phenyl]-6-methyl-2-[2-(1-piperidyl)ethyl]-1H-pyrrolo[3,2-c]pyridine] |  |  |
| 100 | 100 | Cc1cc2c(cc(CCN3CCOCC3)n2C)c(-c2ccc(N3CCN(C(C)C)CC3)c(C(F)(F)F)c2)n1 [Example B18, 4-[2-[4-[4-(4-isopropylpiperazin-1-yl)-3-(trifluoromethyl)phenyl]-1,6-dimethyl-pyrrolo[3,2-c]pyridin-2-yl]ethyl]morpholine] |  |  |
| 100 | 100 | CC(C)N1CCN(c2ccc(-c3nccc4[nH]c(CCN5CCOCC5)cc34)cc2)CC1 [Example B1, 4-[2-[4-[4-(4-isopropylpiperazin-1-yl)phenyl]-1H-pyrrolo[3,2-c]pyridin-2-yl]ethyl]morpholine] |  |  |
| 100 | 100 | Cc1cc2c(cc(CCN3CCOCC3)n2C)c(-c2ccc(N3CCN(C(C)C)CC3)c(F)c2)n1 [Example B14, 4-[2-[4-[3-fluoro-4-(4-isopropylpiperazin-1-yl)phenyl]-1,6-dimethyl-pyrrolo[3,2-c]pyridin-2-yl]ethyl]morpholine] |  |  |
| 100 | 100 | Cc1cc2c(cc(CCN3CCOCC3)n2C)c(-c2ccc(N3CCN(C(C)C)CC3)cc2F)n1 [Example B19, 4-[2-[4-[2-fluoro-4-(4-isopropylpiperazin-1-yl)phenyl]-1,6-dimethyl-pyrrolo[3,2-c]pyridin-2-yl]ethyl]morpholine] |  |  |
